Data as given in patent US6060472A, “Thiadiazole compounds useful as inhibitors of H^+ /K^+ atpase” (Apotex Inc., priority 1998, dated 2000).
pIC50: −log10 of the molar value.

Columns and labels:
[1] = tested on: isolated murine gastric glands of mouse (acid secretion); experiment: In vitro inhibition of gastric acid secretion (14C-aminopyrine accumulation in isolated mouse gastric glands); assay type: cell-based; conditions: 1 h, 60 min at 37 °C, secretagogue stimulated
Experimental: In Vitro Inhibition of Gastric Acid Secretion by Compounds of Formula I
Acid secretion is measured indirectly by the accumulation of the weak base ^14 C-aminopyrine in the isolated murine gastric glands of mouse. The assay is performed in polypropylene eppendorf tubes containing 0.5 mL of resuspended mouse gastric glands. In addition, tubes contain the tested drug, acid secretagogues (e.g. histamine, di-butyryl cyclic AMP (cAMP), carbachol) and ^14 C-aminopyrine. Tubes are incubated for 60 min. at 37 ° C. and continuously rotated. The reaction is stopped by centrifugation of the gland suspension for five min. at 1500 g. Supernatant is aspirated leaving the pellet containing intact gastric glands. The pellet is washed extensively and digested overnight in 1 mL of Protosol (Amersham). After neutralisation with acetic acid and addition of scintillation fluid, the radioactivity is counted in a beta-counter (Beckman). The amount of radioactivity trapped in the pellet corresponds directly with the amount of acid being secreted. Each experimental point is done in triplicate. In each experiment, energy independent consumption was estimated with 0.1 mM of dinitrophenol and basal acid secretion in the absence of acid stimulants. These values were then subtracted from corresponding results in order to calculate basal or secretagogue stimulated acid secretion.
Mouse glands respond to a variety of conventional secretagogues and post-receptor mediators but not to gastrin. The maximum stimulation of acid secretion is achieved with 1 mM cAMP, 0.1 mM histamine, 0.1 mM IBMX, 10 μM carbachol, 10 μM forskolin, 10 μM calcium ionophore A23187, 1 μM thapsigarin. Each experiment is repeated a number of times and all results are expressed as a % of the maximum stimulation. For the purpose of comparing the relative potency of the compounds, each experiment contains positive controls using omeprazole for post-receptor/cAMP mediated responses and ranitidine which inhibits histamine mediated acid secretion.
Using the above procedure, the IC50 value for these compounds were as follows: […]

gastric acid secretion = experiment: Gastric secretion study in rat (pylorus ligation); assay type: in vivo, Male Sprague-Dawley rats; conditions: oral gavage, pylorus-ligated rat, 2 hours post ligation; for Average total gastric contents: Control 2.5; for Average total acid output: Control 298
Experimental: Gastric Secretion Study in Rat The objective of the study was to establish the antisecretory effects of two experimental compounds compared to Omeprazole. Male Sprague-Dawley rats (110 to 140 g in weight) were ordered from Ace Animals, Inc., Boyertown Pa. and were randomized into […] groups. The Control animals were administered carboxymethylcellulose (CMC) as the treated groups were administered the test materials in a suspension of CMC. Two groups were allotted to a reference standard of Omeprazole and were administered doses of 2 and 8 mg/kg. The other 4 dose groups were allotted to the 2 experimental compounds at doses of 8 and 32 mg/kg. All test materials were administered by oral gavage as this is the intended route in humans. Each animal was dosed using a stainless steel ball-tipped gavage needle attached to an appropriate size syringe. All doses administered were based on fasted body weights taken prior to the dosing. Two hours post drug administration, the animals were anesthetized using a short acting general anesthetic (Methoxital Sodium). The midline incision was made and the gastric duodenal area exposed. A ligature of thread was placed around the pylorus and tied tightly. This ligature around the pylorus stimulates the production of gastric acid. The incision was closed post ligation and the animal was replaced in its cage without access of food or water. All rats were euthanized 2 hours post pylorus ligation using an overdose of sodium pentobarbital. The esophagus was ligated and the intact stomach was removed and opened along the great curvature. Gastric contents were collected in a plastic cup and transferred to a 15 ml conical tube. The contents were centrifuged for approximately 10 minutes. The supernatant was decanted and the volume was measured to the nearest tenth of a milliliter. 1 ml of the gastric contents were pipetted into 4 ml of distilled water and titrated with 0.01 N sodium hydroxide to a pH of 7.0. The acidity was measured by titration and the total acid output calculated.

| Compound | pIC50 [1] | Average total gastric contents (gastric acid secretion; 8 mg/kg) [mL] | Average total acid output (gastric acid secretion; 8 mg/kg) [µEq] | Average total gastric contents (gastric acid secretion; 32 mg/kg) [mL] | Average total acid output (gastric acid secretion; 32 mg/kg) [µEq] | Average total gastric contents (gastric acid secretion; 2 mg/kg) [mL] | Average total acid output (gastric acid secretion; 2 mg/kg) [µEq] |
| --- | --- | --- | --- | --- | --- | --- | --- |
| OC(c1ccccc1)c1nsc(N2CCN(c3ccccn3)CC2)n1 (stereo not drawn) [3-(1-hydroxy-1-phenylmethyl)-5-{4-[pyridin-2-yl]-piperazin-1-yl}-1,2,4-thiadiazole] | 4.52 |  |  |  |  |  |  |
| O=C(c1ccccc1)c1nsc(N2CCN(C(c3ccccc3)c3ccc(Cl)cc3)CC2)n1 (stereo not drawn) [3-benzoyl-5-{4-[1-phenyl-1-(4-chlorophenyl)methyl]piperazin-1-yl}-1,2,4-thiadiazole] | 4.30 |  |  |  |  |  |  |
| COc1nsc(N2CCN(c3ccccn3)CC2)n1 [3-methoxy-5-{4-[pyridin-2-yl]-piperazin-1-yl}-1,2,4-thiadiazole] | 4.00 |  |  |  |  |  |  |
| COc1ccc2[nH]c([S+]([O-])Cc3ncc(C)c(OC)c3C)nc2c1 (stereo not drawn) [Omeprazole, reference compound] |  | 1.9 | 164 |  |  | 2.2 | 296 |

The remaining compounds from weak to strong by pIC50 [1], led by results:

| pIC50 [1] | Compound | Average total gastric contents (gastric acid secretion; 8 mg/kg) [mL] | Average total acid output (gastric acid secretion; 8 mg/kg) [µEq] | Average total gastric contents (gastric acid secretion; 32 mg/kg) [mL] | Average total acid output (gastric acid secretion; 32 mg/kg) [µEq] | Average total gastric contents (gastric acid secretion; 2 mg/kg) [mL] | Average total acid output (gastric acid secretion; 2 mg/kg) [µEq] |
| --- | --- | --- | --- | --- | --- | --- | --- |
| 4.60 | O=C(c1cccc(Cl)c1)c1nsc(N2CCN(c3ccccn3)CC2)n1 [3-(3-chlorobenzoyl)-5-{4-[pyridin-2-yl]-piperazin-1-yl}-1,2,4-thiadiazole] | 1.9 | 159 | 2.9 | 271 |  |  |
| 5.22 | O=C(c1ccccc1)c1nsc(N2CCN(c3ccccn3)CC2)n1 [3-benzoyl-5-{4-[pyridin-2-yl]-piperazin-1-yl}-1,2,4-thiadiazole] |  |  |  |  |  |  |
| 5.40 | c1ccc(-c2nsc(N3CCN(c4ccccn4)CC3)n2)cc1 [3-phenyl-5-{4-[pyridin-2-yl]-piperazin-1-yl}-1,2,4-thiadiazole] | 2.2 | 223 | 1.2 | 100 |  |  |
